ChEMBL document CHEMBL1127025, “(E)-3-[[[[6-(2-carboxyethenyl)-5-[[8-(4- methoxyphenyl)octyl]oxy]-2-pyridinyl]-methyl]thio]methyl]benzoic acid: a novel high-affinity leukotriene B4 receptor antagonist” (J Med Chem, 1993)

Assays:
[1] = target: T1, Leukotriene B4 receptor 1 (Homo sapiens, UniProt Q15722); test: Binding affinity against LTB4 receptors in human PMNs
[2] = target: T1, Leukotriene B4 receptor 1; test: Inhibitory concentration against LTB4 receptors in human PMNs
Mus musculus [3] = organism: Mus musculus; test: Inhibition of LTB4-induced PMN infiltration at 250 ng/mL in mouse; format: functional
Mus musculus [4] = test: Effective dose for edematous response after administration of 1 mg of arachidonic acid in mouse ear; format: functional
Mus musculus [5] = test: Effective dose for neutrophil infiltration after administration of 1 mg of arachidonic acid in mouse ear; format: functional
Homo sapiens = organism: Homo sapiens; test: Inhibitory concentration against LTB4 induced degranulation in human PMNs; format: functional

T1 sequence (Q15722 whole entry): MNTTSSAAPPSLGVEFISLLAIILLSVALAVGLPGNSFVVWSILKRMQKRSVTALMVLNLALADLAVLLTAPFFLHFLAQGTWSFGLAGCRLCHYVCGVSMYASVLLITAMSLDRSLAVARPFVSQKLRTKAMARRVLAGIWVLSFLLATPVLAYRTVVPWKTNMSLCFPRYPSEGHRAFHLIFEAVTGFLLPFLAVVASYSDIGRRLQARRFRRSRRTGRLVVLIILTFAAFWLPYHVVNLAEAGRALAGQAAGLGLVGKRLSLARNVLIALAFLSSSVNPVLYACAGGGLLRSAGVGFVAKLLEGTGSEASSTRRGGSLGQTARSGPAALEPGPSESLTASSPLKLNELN

Row | Structure (SMILES) | Ki [1] [nM] | IC50 [2] [nM] | ED50 (Mus musculus [3]) [mg/kg] | ED50 (Mus musculus [4]) [mg ear-1] | ED50 (Mus musculus [5]) [mg ear-1] | IC50 (Homo sapiens) [nM]
1 | CCCCCCCCCCOc1ccc(CC(O)c2cccc(C(=O)O)c2)nc1/C=C/C(=O)O (configuration not stated) | 280 | – | – | – | – | –
2 | COc1ccc(CCCCCCCCOc2ccc(CSCc3cccc(C(=O)O)c3)nc2/C=C/C(=O)O)cc1 | 7.1 | 131 | 7.1 | 0.58 | 0.39 | 268
